Reference: US10736859B2, “Eutectic formulations of cyclobenzaprine hydrochloride and amitriptyline hydrochloride” (Tonix Pharma Holdings Limited, priority 2013, dated 2020)

Assays:
Format in all cases: physicochemical
[1] = DSC compatibility of Cyclobenzaprine HCl (API) with excipients, milled mixtures (Example 1); conditions: for Excipient reactions with API, Mixture 1:1: Cyclobenzaprine HCl + excipient 1:1, ground in agate mortar; for Excipient reactions with API, Mixture in formulation ratio: Cyclobenzaprine HCl + excipient in formulation ratio
Protocol: Thermal analytical techniques were used to assess the compatibility of a drug product (tablet) containing Cyclobenzaprine HCl (API). The compatibility assessment was carried out between the API and a number of possible excipients in a 1:1 ratio. Based on the thermal events recorded for each component and for the mixtures, the analyses were carried out by investigating the peaks recorded by differential scanning calorimetry (DSC) in mixture between API and the excipients. Differences in thermal profiles between the single compound and the related mixture obtained after milling the products in an agate mortar were evaluated. Stability and compatibility also were also assessed on the final drug product after stress conditions at 40° C. and 50° C. for one month.
A “formulation ratio” mixture was made with the following composition: 2.40 mg Cyclobenzaprine HCl, 31.55 mg Mannitol and Maize starch, 2.00 Crospovidone, 0.50 mg colloidal silica, 0.050 mg Sodium Stearyl Fumarate, and 1.05 Potassium hydrogen phosphate.
Aliquots of API and each excipient were weighed in a ratio of 1:1 (unless specified otherwise) and ground in an agate mortar. The homogeneous mixtures then were analyzed.
(§1) The DSC heating curves were obtained with a TA 821 DSC Mettler instrument under the following conditions: • Heating rate: 10° C./min • Ambient: Nitrogen 30 mL/min • Sample holder: normal open aluminum pan • Temperature range: from 25° C. to 250° C. • Instrument calibration: Indium sample purity 99.999%

[2] = DSC, FT-IR/ATR and XRPD compatibility of Cyclobenzaprine HCl with additional excipients, mixed (A) and milled (B) 1:1 mixtures (Example 2); conditions: DSC; for Interactions between Cyclobenzaprine HCl and excipients, Mixture 1:1 (mixed): mixture A, mechanical mixing only; for Interactions between Cyclobenzaprine HCl and excipients, Mixture 1:1 (milled): mixture B, ground in agate mortar
Protocol: As described above, thermal analytical techniques were further used to assess the compatibility of a drug product (tablet) containing Cyclobenzaprine HCl (API). The compatibility assessment was carried out between the API and additional excipients in a 1:1 ratio. The 1:1 API-excipient mixtures were formed in two different ways: first, by mixing only, and second, by strong milling in an agate mortar. The thermal behavior recorded in the two different mixtures were compared with those of the single components. On the basis of thermal events recorded for each component and for the mixtures, the analyses were carried out by investigating the meanings of the peaks recorded by differential scanning calorimetry (DSC) in mixtures between the API and the excipients. Furthermore, in order to define the nature of the interaction, the Fourier Transformate Infra Red Spectroscopy with Total Attenuated Reflectance (FT-IR/ATR) and X-ray powder diffraction (XRPD) of some samples (API, excipient, and mixed and milled mixtures) was carried out and compared.
Aliquots of API and each excipient were weighed in a ratio of 1:1 and ground in an agate mortar. Then, the homogeneous mixtures were analyzed. These sample mixtures were labeled “B”, while the mechanical-only mixtures were labeled “A.”
as §1, with “by” for “with a”, “99.999% Fourier Transformate Infra Red Spectroscopy with Total Attenuated Reflectance (FT-IR/ATR)” for “99.999%”
The FT-IR spectra were collected with a Perkin Elmer spectrum Two instrument with air as background and 4 cm^−1 resolution.
X-ray powder diffraction (XRPD) tests were performed with the ULTIMA IV instrument (Rigaku), laying the sample on a static sample holder. The X-ray focusing slit has a variable width, interlocked with the q value. The X-ray tube has a Copper target, with a current intensity of 40 mA and a voltage of 40 kV. Radiation was generated by the Cockcroft-Walton method, and was constituted by Kα1 (1.540562 Å) and Kα2 (1.544398 Å). The analytical conditions were: • Fixed Time; sampling width 0.02 deg, scanning rate 1.3 s/step, 2 q range 3.35 deg and sample holder; amorphous glass equiangular 9200/2G, 0.2 mm deep. The sample was pressed with a glass plate.

[3] = XRPD of binary Cyclobenzaprine HCl/mannitol mixtures (Example 3); conditions: Cyclobenzaprine HCl/mannitol mixtures 30, 50, 65, 75 and 90% API, no thermal treatment
Protocol: In order to confirm the eutectic formation and to characterize its physical properties, several binary mixtures at different ratios of API-excipient were prepared and analyzed by DSC and by X-ray powder diffraction (XRPD). The mixtures were obtained by gently milling in agate mortar of micronized Cyclobenzaprine HCl and mannitol, in order to obtain homogeneous distribution of the particles. For each DSC heating curve, the onset temperature and the enthalpy were evaluated both for the eutectic contribute and for the excess of component. The recorded values were plotted and a phase diagram between the two components was obtained with a characteristic profile of phase diagrams of eutectic mixtures.
Mixtures also were investigated by XRPD and compared with the patterns of pure components. […] The XRPD patterns obtained in the mixtures, compared with pure components, were plotted in order to confirm the linearity of the peak intensities (cpf) of mannitol and Cyclobenzaprine HCl, and a proportional peak height at characteristic 2 theta angles.
X-ray powder diffraction (XRPD) tests were performed with a ULTIMA IV (Rigaku) instrument, laying the sample on a static sample holder. […] The radiation generated by the Cockcroft-Walton method is constituted by Kα1 (1.540562 Å) and Kα2 (1.544398 Å). […]

[4] = DSC compatibility of Amitriptyline HCl with excipients, 1:1 milled mixtures (Example 4); conditions: Amitriptyline HCl + excipient 1:1, milled in agate mortar, fumarate
Protocol: Thermal analytical techniques were used to assess the compatibility of the drug product amitriptyline HCl. The compatibility assessment was carried out between the API and the excipients in a 1:1 ratio. On the basis of thermal events recorded for each component and for the mixtures, the analyses were carried out by investigating the peaks recorded by DSC in mixtures between API and the excipients. Differences in thermal profiles between the single compound and the related mixtures were obtained after milling the products in an agate mortar.
DSC was performed substantially as described in Examples 1 and 2. The following raw materials were used: • Amitriptyline HCl • Sodium stearyl fumarate • Stearic acid • Glycerol dibehenate • Magnesium stearate • Pearlitol flash • Pearlitol 200 SO/Mannitol • Unipure DW/Com starch pregelatinized • Crospovidone-Kollidon CL • Silicon Colloidal/Aerosil 200 • Sodium phosphate dibasic • Sodium bicarbonate • Sodium carbonate • Sodium Phosphate dodecahydrate • Sodium Phosphate anhydrous.

[5] = listed as Sodium Stearyl fumarate, fumarate

For `O=P([O-])([O-])O.[K+].[K+]` [Potassium phosphate dibasic, dipotassium hydrogen phosphate], the “Excipient reactions with API, Mixture 1:1” value [1] was “Acid - base interaction”, the “Excipient reactions with API, Mixture 1:1” value ([1]; listed as Potassium phosphate bibasic) was “chemical interaction (acid-base)” and the “Excipient reactions with API, Mixture in formulation ratio” value [1] was “Low chemical”. The “Excipient reactions with API, Mixture in formulation ratio” value ([1]; listed as K2HPO4) was “small interaction”.

With `OC[C@@H](O)[C@@H](O)[C@H](O)[C@H](O)CO` [Mannitol] the “Interactions between Cyclobenzaprine HCl and excipients, Mixture 1:1 (mixed)” value [2] was “Eutectic”, the “Interactions between Cyclobenzaprine HCl and excipients, Mixture 1:1 (mixed)” value ([2]; listed as mannitol) was “physical complex interaction peak (eutectic)” and the “Interactions between Cyclobenzaprine HCl and excipients, Mixture 1:1 (milled)” value [2] was “Eutectic”. For the same compound, the “Interactions between Cyclobenzaprine HCl and excipients, Mixture 1:1 (milled)” value ([2]; listed as mannitol) was “physical complex interaction peak (eutectic)” and the “Adduct formation by XRPD” value [3] was “no adduct formation, only a physical eutectic formation”.

In the case of `CCCCCCCCCCCCCCCCCCOC(=O)/C=C/C(=O)[O-].[Na+]` [Sodium stearyl fumarate], the “Interactions between API and excipients, Mixture in formulation (1:1 ratio)” value [4] is reported as “Physical interaction”, the “Interactions between API and excipients, Mixture in formulation (1:1 ratio)” value ([4]; listed as Sodium Stearyl fumarate) is reported as “physical interaction” and the “Excipient reactions with API, Mixture 1:1” value ([1]; fumarate) is reported as “Physical interaction”. For the same compound, the “Excipient reactions with API, Mixture 1:1” value [1, 5] was “physical interaction”, the “Excipient reactions with API, Mixture in formulation ratio” value ([1]; fumarate) was “No interaction” and the “Excipient reactions with API, Mixture in formulation ratio” value [1, 5] was “small physical interaction”.
